In patent US9346799B2, “Useful combinations of monobactam antibiotics with beta-lactamase inhibitors” (Basilea Pharmaceutica AG, priority 2005, dated 2016):

Tests used:
Test in all cases: MIC by broth microdilution (NCCLS M7-A5)
[1] = system: Pseudomonas aeruginosa 1973E
[2] = system: Pseudomonas aeruginosa MK1184
[3] = system: Klebsiella pneumoniae CF104
[4] = system: Enterobacter aerogenes B1; conditions: E. aerogenes B1; + compound 323 and sulbactam, 4 mg/L each
[5] = system: Serratia marcescens S6
[6] = system: Acinetobacter sp. J2; conditions: Acinetobacter baumannii J2
[7] = system: Enterobacter aerogenes Zayakosky; conditions: E. aerogenes Zayakosky; + compound 323 and sulbactam, 4 mg/L each
[8] = system: Stenotrophomonas malthophilia 1AC736; conditions: Stenotrophomonas maltophilia 1AC736
[9] = system: Enterobacter cloacae P99
[10] = + 102 + clavulanate, 4 mg/L each
[11] = + 324 + clavulanate, 4 mg/L each

| MIC of antibiotic [1, 10] [µg/mL] | MIC of antibiotic [3, 10] [µg/mL] | MIC of antibiotic [5, 10] [µg/mL] | MIC of antibiotic [6, 10] [µg/mL] | MIC of antibiotic [8, 10] [µg/mL] | MIC of antibiotic [9, 10] [µg/mL] | MIC of antibiotic ([9]; antibiotic alone) [µg/mL] | MIC of antibiotic ([1]; antibiotic alone) [µg/mL] | MIC of antibiotic [2, 10] [µg/mL] | MIC of antibiotic ([2]; antibiotic alone) [µg/mL] | MIC of antibiotic ([3]; antibiotic alone) [µg/mL] | MIC of antibiotic ([5]; antibiotic alone) [µg/mL] | MIC of antibiotic ([6]; antibiotic alone) [µg/mL] | MIC of antibiotic ([8]; antibiotic alone) [µg/mL] | MIC of antibiotic [9, 11] [µg/mL] | MIC of antibiotic [1, 11] [µg/mL] | MIC of antibiotic [2, 11] [µg/mL] | MIC of antibiotic [3, 11] [µg/mL] | MIC of antibiotic [5, 11] [µg/mL] | MIC of antibiotic [6, 11] [µg/mL] | SMILES | also measured |
| --- | --- | --- | --- | --- | --- | --- | --- | --- | --- | --- | --- | --- | --- | --- | --- | --- | --- | --- | --- | --- | --- |
| 8 | 0.5 | 2 | 16 | 4 | – | – | – | – | – | – | – | – | – | – | – | – | – | – | – | C[C@H]1[C@H](NC(=O)/C(=N\OC(C)(C)C(=O)O)c2csc(N)n2)C(=O)N1S(=O)(=O)O [Aztreonam, aztreonam, reference compound] | MIC of antibiotic ([1]; + 102 + sulbactam, 4 mg/L each): 4 µg/mL; MIC of antibiotic ([2]; + 102 + sulbactam, 4 mg/L each): 16 µg/mL; MIC of antibiotic ([3]; + 102 + sulbactam, 4 mg/L each): 1 µg/mL; Minimal Inhibitory Concentration of antibiotic [4]: 8 mg/L; MIC of antibiotic ([5]; + 102 + sulbactam, 4 mg/L each): 2 µg/mL; MIC of antibiotic ([6]; + 102 + sulbactam, 4 mg/L each): 4 µg/mL; Minimal Inhibitory Concentration of antibiotic [7]: 8 mg/L; MIC of antibiotic ([8]; + 102 + sulbactam, 4 mg/L each): 8 µg/mL |
| 16 | 2 | 16 | >32 | 8 | 32 | >32 | >32 | 32 | >32 | >32 | 8 | >32 | 8 | – | – | – | – | – | – | CC1C(NC(=O)C(=NOCc2cc(=O)c(O)cn2O)c2csc(NC=O)n2)C(=O)N1S(=O)(=O)O (stereo not drawn) [Compound 28] | – |
| 8 | 0.5 | 1 | >32 | 0.5 | 0.25 | >32 | 4 | 8 | >32 | >32 | 32 | >32 | 1 | – | – | – | – | – | – | C[C@H]1[C@H](NC(=O)/C(=N\OCc2cc(=O)c(O)cn2O)c2nc(N)sc2Cl)C(=O)N1OS(=O)(=O)O [Compound 29, (3S,4S)-3-{(2Z)-2-(2-amino-5-chloro(1,3-thiazol-4-yl))-3-[(1,5-dihydroxy-4-oxo(2-hydropyridyl))methoxy]-3-azaprop-2-enoylamino}-4-methyl-2-oxoazetidinyl hydroxysulfonate] | MIC of antibiotic ([9]; + 102 + sulbactam, 4 mg/L each): 8 µg/mL; MIC of antibiotic ([9]; + 323 + sulbactam, 4 mg/L each): 8 µg/mL; MIC of antibiotic ([1]; + 102 + sulbactam, 4 mg/L each): 8 µg/mL; MIC of antibiotic ([1]; + 323 + sulbactam, 4 mg/L each): 8 µg/mL; MIC of antibiotic ([2]; + 102 + sulbactam, 4 mg/L each): 4 µg/mL; MIC of antibiotic ([2]; + 323 + sulbactam, 4 mg/L each): 8 µg/mL; MIC of antibiotic ([3]; + 102 + sulbactam, 4 mg/L each): 2 µg/mL; MIC of antibiotic ([3]; + 323 + sulbactam, 4 mg/L each): 2 µg/mL; MIC of antibiotic ([5]; + 102 + sulbactam, 4 mg/L each): 8 µg/mL; MIC of antibiotic ([5]; + 323 + sulbactam, 4 mg/L each): 8 µg/mL; MIC of antibiotic ([6]; + 102 + sulbactam, 4 mg/L each): 2 µg/mL; MIC of antibiotic ([6]; + 323 + sulbactam, 4 mg/L each): 2 µg/mL; MIC of antibiotic ([8]; + 102 + sulbactam, 4 mg/L each): 1 µg/mL; MIC of antibiotic ([8]; + 323 + sulbactam, 4 mg/L each): 1 µg/mL |
| 16 | >32 | 0.5 | >32 | 0.5 | 32 | – | – | 4 | – | 2 | – | – | – | 8 | 8 | 4 | 1 | 0.25 | 4 | CC1(C)C(NC(=O)C(=NOCc2cc(=O)c(O)cn2O)c2nsc(N)n2)C(=O)N1OS(=O)(=O)O (stereo not drawn) [Compound 32] | MIC of antibiotic [8, 11]: 0.5 µg/mL |
| 32 | 2 | 0.5 | >32 | 2 | 32 | 16 | 16 | 32 | 32 | 0.5 | 0.25 | 8 | 2 | 4 | 16 | 16 | 0.5 | 0.25 | 16 | CC1(C)C(NC(=O)C(=NOCc2cc(=O)c(O)cn2O)c2csc(N)n2)C(=O)N1OCC(=O)O (stereo not drawn) [Compound 33] | MIC of antibiotic [8, 11]: 2 µg/mL |
| 4 | 0.5 | 0.5 | 16 | 2 | 16 | >32 | 4 | 4 | 4 | >32 | 1 | 16 | 1 | – | – | – | – | – | – | NC(=O)OCC1C(NC(=O)C(=NOCc2cc(=O)c(O)cn2O)c2csc(N)n2)C(=O)N1OCC(=O)O (stereo not drawn) [Compound 41] | – |
| 4 | 4 | 2 | >32 | 1 | 16 | >32 | 8 | 2 | 4 | >32 | 2 | >32 | 1 | 32 | 8 | 4 | 2 | 2 | >32 | NC(=O)OCC1C(NC(=O)C(=NOCc2cc(=O)c(O)cn2O)c2nc(N)sc2Cl)C(=O)N1OS(=O)(=O)O (stereo not drawn) [Compound 47] | MIC of antibiotic [8, 11]: 1 µg/mL |
